From patent publication US11944615B2, “Combination therapy for treatment of LKB1 deficient cancers” (New York University, priority 2020, dated 2024) come the findings set out here.

One assay deals with KL allograft tumor. The assay can be described thus: KL subcutaneous allograft tumor growth in syngeneic wild-type mice. Type of assay: in vivo. The conditions noted are these: KL allograft implanted subcutaneously in right flank, single agent, I.P. 5 days/week. The source says: FIG. 6. NAMPT inhibition reduced KL lung tumor growth in vivo. A) Lung tumor volume measurements of KL subcutaneous allograft tumors following treatment with indicated drugs. B) Average tumor volumes over time in KL tumors with indicated treatments. Arrow denotes treatment start time. C) Percent change in KL tumor volume after 6 days of treatment with indicated drugs. D) Images of subcutaneous KL tumor allografts at endpoint of treatment experiment. *P<0.05.
All animal experiments were reviewed and approved by the Institutional Animal Care and Use Committee (IACUC) at NYU Langone Health. For lung tumor growth assays, 10^6 KP and KL syngeneic mouse lung cancer cells were implanted into male C57BL/6 mice at 7 weeks of age via tail vein injection. After 8 weeks, mice were imaged by Mill to assess tumor volume. For drug treatment experiments, 10^6 KLA cells were injected subcutaneously in the right flank of female C57BL/6 mice at 7 weeks of age or injected via tail vein injection. […] Tumor volumes were measured using digital calipers or Mill. Mouse weights were measured weekly to adjust total dosage and assess the effects of drug combinations on mouse health. […]

Another assay relates to PD-L1. The assay can be described thus: Western blot of PD-L1 in KP cells with SIK or LKB1 knockout treated with NAM. In kind it is cell-based, mouse. (In general: A western blot detects proteins with antibodies after separation by electrophoresis.)

Method for PD-L1: A) Western blot of indicated proteins in KL or KP cells with SIK or LKB1 knockout and treated with NAM or NAD^+ for 6 days.
Lung cancer cell lines were cultured in RPMI 1640 (Gibco, Thermo Fisher Scientific) supplemented with 10% fetal bovine serum (FBS, Gibco). The KPC Kras^LA1-G12D p53^−/− (KP) and KLA Kras^LA1-G12D;Lkb1^−/− (KL) murine lung cancer cell lines were generated by dissociation of KP and KL lung tumor nodules to single cell suspensions, seeded on tissue culture plates, and cultured in RPMI 1640 (Gibco, Thermo Fisher Scientific) supplemented with 10% fetal bovine serum (FBS, Gibco). […] All cells were cultured at 37° C. in a humidified incubator at 5% CO2 and verified on a weekly basis to be mycoplasma negative.

As to `O=C(/C=C/c1cccnc1)NCCCCC1CCN(C(=O)c2ccccc2)CC1` [FK866], in the assay on KL allograft tumor, the tumor growth entry is on record as “reduced lung tumor growth only after 6 days of treatment”. `NC(=O)c1cccnc1` [NAM, nicotinamide]: the PD-L1 levels entry is given as “marked reduction in PD-L1 levels” with PD-L1 (KP cells with SIK or LKB1 KO, NAM treatment for 6 days) and “no effect on PD-L1 levels” in the assay with PD-L1 (KP cells with wild-type SIK or LKB1, NAM treatment).
